Measurements: ChEMBL document CHEMBL6153170 (J Med Chem, 2025)
Converted amounts (≈) assume the structure as drawn. The source made the active and inactive calls. No cut-off for these calls is given here.

How the values were obtained:
[1] = molecular target: Programmed cell death protein 1/Programmed cell death 1 ligand 1 (Homo sapiens, UniProt Q9NZQ7); experiment: Inhibition of PD-1/PD-L1 (unknown origin) protein-protein interaction by HTRF assay; assay type: protein-complex assay
[2] = tested on: HepG2; experiment: cells; conditions: Homo sapiens, HepG2, 48 h
[3] = tested on: Jurkat; experiment: cells; conditions: Homo sapiens, 72 h
[4] = molecular target: T1, Histone deacetylase 7 (Homo sapiens, UniProt Q8WUI4); experiment: Inhibition of N-terminal GST-tagged recombinant human HDAC7 (501 to 952 residues) extracted from baculovirus expression system using Ac-Leu-Gly-Lys (Tfa)-AMC as substrate preincubated for 5 mins followed by substrate addition and measured after 30 mins by fluorescence microplate reader analysis
T1 sequence (Q8WUI4 whole entry): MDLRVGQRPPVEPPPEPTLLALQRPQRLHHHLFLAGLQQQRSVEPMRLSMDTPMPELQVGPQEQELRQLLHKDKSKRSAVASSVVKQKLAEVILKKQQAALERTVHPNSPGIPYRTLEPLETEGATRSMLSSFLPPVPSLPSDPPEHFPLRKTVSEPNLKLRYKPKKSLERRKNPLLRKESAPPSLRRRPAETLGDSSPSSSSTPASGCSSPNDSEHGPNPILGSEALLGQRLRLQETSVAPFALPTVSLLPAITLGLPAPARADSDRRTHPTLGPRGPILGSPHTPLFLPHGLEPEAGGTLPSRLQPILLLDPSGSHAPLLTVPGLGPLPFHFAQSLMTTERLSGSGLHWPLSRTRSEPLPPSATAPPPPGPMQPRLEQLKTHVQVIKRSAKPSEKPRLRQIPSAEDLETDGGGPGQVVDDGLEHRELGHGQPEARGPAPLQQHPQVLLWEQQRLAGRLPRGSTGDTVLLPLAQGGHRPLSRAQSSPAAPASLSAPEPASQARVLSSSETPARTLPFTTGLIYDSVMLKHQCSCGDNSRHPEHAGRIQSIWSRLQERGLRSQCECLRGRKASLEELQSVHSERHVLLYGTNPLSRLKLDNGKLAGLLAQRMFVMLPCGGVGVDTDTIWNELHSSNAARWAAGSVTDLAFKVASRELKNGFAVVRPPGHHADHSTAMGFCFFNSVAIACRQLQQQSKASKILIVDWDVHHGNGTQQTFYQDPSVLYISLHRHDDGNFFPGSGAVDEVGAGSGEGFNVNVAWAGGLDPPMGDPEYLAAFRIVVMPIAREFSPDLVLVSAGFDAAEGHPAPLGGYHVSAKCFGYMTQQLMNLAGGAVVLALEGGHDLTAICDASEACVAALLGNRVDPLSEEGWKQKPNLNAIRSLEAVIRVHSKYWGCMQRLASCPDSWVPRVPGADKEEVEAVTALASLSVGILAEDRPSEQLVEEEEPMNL

[5] = tested on: B16-F10; experiment: cells; conditions: Mus musculus, B16-F10, 48 h
[6] = tested on: MCF7; experiment: cells; conditions: Homo sapiens, MCF7, 48 h
[7] = molecular target: T2, Histone deacetylase 8 (Homo sapiens, UniProt Q9BY41); experiment: Inhibition of C-terminal His-tagged recombinant full length human HDAC8 extracted from baculovirus infected Sf9 insect cells preincubated for 5 mins followed by substrate addition and measured after 30 mins by fluorescence microplate reader analysis
T2 sequence (Q9BY41 whole entry): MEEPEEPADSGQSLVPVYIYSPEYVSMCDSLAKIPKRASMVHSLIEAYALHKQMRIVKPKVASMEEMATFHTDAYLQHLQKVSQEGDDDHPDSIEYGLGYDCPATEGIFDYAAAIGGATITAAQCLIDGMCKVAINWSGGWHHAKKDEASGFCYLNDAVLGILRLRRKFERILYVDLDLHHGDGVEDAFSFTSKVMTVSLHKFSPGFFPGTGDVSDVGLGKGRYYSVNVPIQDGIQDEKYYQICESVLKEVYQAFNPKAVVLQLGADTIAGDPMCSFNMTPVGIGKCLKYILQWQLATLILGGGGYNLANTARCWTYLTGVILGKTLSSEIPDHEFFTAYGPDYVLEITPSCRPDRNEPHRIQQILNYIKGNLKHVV

[8] = molecular target: Histone deacetylase 1 (Homo sapiens, UniProt Q13547); experiment: Inhibition of recombinant full-length human HDAC1 (1 to 482 residues) extracted from baculovirus expression system using Ac-Leu-Gly-Lys (Ac)-AMC as substrate preincubated for 5 mins followed by substrate addition and measured after 30 mins by fluorescence microplate reader analysis
[9] = molecular target: T3, Protein deacetylase HDAC6 (Mus musculus) (UniProt Q9Z2V5); experiment: Inhibition of HDAC6 in mouse B16-F10 cells assessed as increase in acetylated alpha-tubulin level incubated for 12 hrs by Western blot analysis; assay type: cell-based; conditions: dose 0.1-2 µM
T3 sequence (whole entry): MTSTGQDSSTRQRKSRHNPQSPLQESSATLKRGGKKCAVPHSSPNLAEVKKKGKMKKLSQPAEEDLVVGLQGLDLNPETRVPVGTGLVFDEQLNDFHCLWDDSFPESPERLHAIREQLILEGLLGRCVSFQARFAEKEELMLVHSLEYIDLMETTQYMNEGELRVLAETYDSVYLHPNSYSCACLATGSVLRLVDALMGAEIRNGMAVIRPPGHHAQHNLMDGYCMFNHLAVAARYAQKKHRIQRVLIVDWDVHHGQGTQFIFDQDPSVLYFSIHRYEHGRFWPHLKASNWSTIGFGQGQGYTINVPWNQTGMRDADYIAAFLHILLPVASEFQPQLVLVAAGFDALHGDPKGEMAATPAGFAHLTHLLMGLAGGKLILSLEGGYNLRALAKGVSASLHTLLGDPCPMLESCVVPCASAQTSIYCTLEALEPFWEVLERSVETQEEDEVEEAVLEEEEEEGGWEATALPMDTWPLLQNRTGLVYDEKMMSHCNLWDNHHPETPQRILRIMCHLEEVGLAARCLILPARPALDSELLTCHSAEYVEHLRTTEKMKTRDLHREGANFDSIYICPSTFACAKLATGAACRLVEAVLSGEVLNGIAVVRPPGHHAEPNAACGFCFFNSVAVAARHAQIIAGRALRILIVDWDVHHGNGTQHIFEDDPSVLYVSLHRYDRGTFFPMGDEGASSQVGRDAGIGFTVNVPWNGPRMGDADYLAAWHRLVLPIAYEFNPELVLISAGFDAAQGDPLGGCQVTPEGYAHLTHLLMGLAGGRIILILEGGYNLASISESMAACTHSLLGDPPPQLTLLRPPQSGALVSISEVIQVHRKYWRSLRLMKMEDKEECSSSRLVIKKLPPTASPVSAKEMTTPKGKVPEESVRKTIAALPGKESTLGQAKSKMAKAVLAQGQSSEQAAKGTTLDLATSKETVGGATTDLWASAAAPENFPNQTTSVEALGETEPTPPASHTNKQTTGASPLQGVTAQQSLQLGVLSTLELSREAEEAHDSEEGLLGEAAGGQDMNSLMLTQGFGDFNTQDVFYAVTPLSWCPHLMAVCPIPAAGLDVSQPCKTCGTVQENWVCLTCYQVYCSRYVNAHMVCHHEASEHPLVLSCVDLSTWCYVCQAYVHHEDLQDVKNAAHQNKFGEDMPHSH

[10] = molecular target: T3, Protein deacetylase HDAC6 (Mus musculus); experiment: In vivo inhibition of HDAC6 in C57BL/6 mouse model implanted with mouse B16-F10 cells assessed as increase in acetylated alpha-tubulin protein level in tumor at 20 mg/kg/day, ip administered for 14 days by Western blot analysis; assay type: functional, organism-based; conditions: time 14.0 day
[11] = tested on: B16-F10; experiment: Effect on STAT3 expression level in mouse B16-F10 cells at 0.1 to 2 uM incubated for 24 hrs by Western blot analysis; assay type: functional, cell-based; conditions: dose 0.1-2 µM
[12] = In vivo inhibition of PD-L1 in C57BL/6 mouse model implanted with mouse B16-F10 cells assessed as reduction in PD-L1 protein expression in tumor at 20 mg/kg/day, ip administered for 14 days by Western blot analysis relative to control; assay type: functional; conditions: C57BL/6, B16-F10, 336 h, time 14 day
[13] = tested on: B16-F10; experiment: Downregulation of PD-L1 expression level in mouse B16-F10 cells at 0.1 to 2 uM incubated for 24 hrs by Western blot analysis; assay type: functional, cell-based; conditions: dose 0.1-2 µM
[14] = tested on: B16-F10; experiment: Antitumor activity against mouse B16-F10 cells implanted in C57BL/6 mouse model assessed as tumor growth inhibition at 20 mg/kg/day, ip administered for 14 days relative to control; assay type: functional; conditions: B16-F10, 336 h, time 14 day, read-out: TGI
[15] = tested on: B16-F10; experiment: Antitumor immunity activity against mouse B16-F10 cells implanted in C57BL/6 mouse model assessed as CD3+ CD8+ T cell percentage in tumor at 20 mg/kg/day, ip administered for 14 days by flow cytometric analysis (reference value: 0.52 %); assay type: functional; conditions: time 14 day
[16] = tested on: Jurkat; experiment: Effect on HDAC6 protein level in human Jurkat T cells at 0.1 to 2 uM incubated for 12 hrs by Western blot analysis; assay type: functional, cell-based; conditions: dose 0.1-2 µM
[17] = tested on: B16-F10; experiment: Effect on HDAC6 protein level in mouse B16-F10 cells at 0.1 to 2 uM incubated for 12 hrs by Western blot analysis; assay type: functional, cell-based; conditions: dose 0.1-2 µM
[18] = tested on: B16-F10; experiment: Downregulation of p-STAT3 expression level in mouse B16-F10 cells at 0.1 to 2 uM incubated for 24 hrs by Western blot analysis; assay type: functional, cell-based; conditions: dose 0.1-2 µM
[19] = tested on: B16-F10; experiment: Antitumor immunity activity against mouse B16-F10 cells implanted in C57BL/6 mouse model assessed as CD3+ CD4+ T cell percentage in tumor at 20 mg/kg/day, ip administered for 14 days by flow cytometric analysis (reference value: 0.095 %); assay type: functional; conditions: time 14 day
[20] = Aqueous solubility of compound incubated for 24 hrs by miniaturized shake flask based HPLC analysis; assay type: physicochemical; conditions: buffer
[21] = tested on: Jurkat; experiment: Upregulation of acetylated histone H3 protein level in human Jurkat T cells at 0.1 to 2 uM incubated for 12 hrs by Western blot analysis; assay type: functional, cell-based; conditions: dose 0.1-2 µM
[22] = tested on: B16-F10; experiment: Upregulation of acetylated histone H3 protein level in mouse B16-F10 cells at 0.1 to 2 uM incubated for 12 hrs by Western blot analysis; assay type: functional, cell-based; conditions: dose 0.1-2 µM

Chain of Programmed cell death protein 1/Programmed cell death 1 ligand 1 (Q15116 whole entry): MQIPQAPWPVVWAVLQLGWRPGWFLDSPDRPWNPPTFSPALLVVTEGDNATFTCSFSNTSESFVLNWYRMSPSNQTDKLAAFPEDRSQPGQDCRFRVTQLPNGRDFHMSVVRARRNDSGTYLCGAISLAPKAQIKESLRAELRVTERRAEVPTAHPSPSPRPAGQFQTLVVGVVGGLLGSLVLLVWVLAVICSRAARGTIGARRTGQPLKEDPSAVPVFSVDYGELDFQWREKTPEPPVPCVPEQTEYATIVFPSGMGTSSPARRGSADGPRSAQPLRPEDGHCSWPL
Chain of Programmed cell death protein 1/Programmed cell death 1 ligand 1 (Q9NZQ7 whole entry): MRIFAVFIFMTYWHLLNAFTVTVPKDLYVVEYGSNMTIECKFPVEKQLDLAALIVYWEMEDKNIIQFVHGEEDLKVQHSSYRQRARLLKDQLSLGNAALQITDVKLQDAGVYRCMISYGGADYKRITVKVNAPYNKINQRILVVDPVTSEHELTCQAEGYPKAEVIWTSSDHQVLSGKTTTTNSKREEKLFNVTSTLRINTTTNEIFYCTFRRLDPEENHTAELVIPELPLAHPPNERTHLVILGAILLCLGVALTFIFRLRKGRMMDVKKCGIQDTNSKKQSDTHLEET
Chain of Histone deacetylase 1 (Q13547 whole entry, the tested form may be a part): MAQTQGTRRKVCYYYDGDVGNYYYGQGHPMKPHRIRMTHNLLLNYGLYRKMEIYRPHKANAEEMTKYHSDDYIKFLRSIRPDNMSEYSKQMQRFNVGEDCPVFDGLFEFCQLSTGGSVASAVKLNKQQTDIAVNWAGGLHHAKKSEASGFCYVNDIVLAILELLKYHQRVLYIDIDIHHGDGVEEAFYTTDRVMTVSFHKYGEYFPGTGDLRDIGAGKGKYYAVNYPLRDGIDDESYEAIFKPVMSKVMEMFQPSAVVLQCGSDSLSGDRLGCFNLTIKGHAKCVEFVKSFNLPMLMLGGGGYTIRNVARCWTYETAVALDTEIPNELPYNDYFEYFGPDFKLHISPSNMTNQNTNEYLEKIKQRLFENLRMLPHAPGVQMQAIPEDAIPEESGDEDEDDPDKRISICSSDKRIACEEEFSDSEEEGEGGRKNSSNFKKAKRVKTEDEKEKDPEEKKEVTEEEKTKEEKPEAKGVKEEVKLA

Structure (SMILES)	IC50 [1]	IC50 [2]	IC50 [3]	IC50 [4]	IC50 [5]	IC50 [6]	IC50 [7]	other results
COc1nc(-c2cccc(-c3ccccc3)c2C)ccc1CNCCCCCC(=O)NO	0.0694 µM	> 10 µM	> 10 µM	> 100 µM	> 10 µM	> 10 µM	–	–
COc1nc(-c2cccc(-c3ccccc3)c2C)ccc1CNCCCCC(=O)NO	0.0792 µM	9.7 µM	> 10 µM	> 100 µM	> 10 µM	> 10 µM	> 10 µM	–
COc1nc(-c2cccc(-c3ccccc3)c2C)ccc1CNCCCC(=O)NO	0.0208 µM	–	–	> 100 µM	–	–	> 10 µM	–
COc1nc(OCc2cccc(-c3ccccc3)c2C)ccc1CNCCCCC(=O)NO	0.1 µM	9.7 µM	> 10 µM	> 100 µM	> 10 µM	> 10 µM	> 10 µM	IC50 [8]: > 10 µM
O=C(CCCCCCNC(=O)c1cnc(N(c2ccccc2)c2ccccc2)nc1)NO [RICOLINOSTAT]	–	7.9 µM	6.7 µM	–	> 10 µM	8.3 µM	–	inhibition [9]: Dose-dependent-effect; inhibition [10]: Active; Activity [11]: inactive; inhibition in vivo at 20 mg/kg/day [12]: ~30%; Activity [13]: Active; inhibition in vivo at 20 mg/kg/day [14]: 45.6%; Activity [15]: 1.04%; Activity [16]: inactive; Activity [17]: inactive; Activity [18]: Active; Activity [19]: 2.62%
COc1nc(OCc2cccc(-c3ccccc3)c2C)ccc1CNCCNC(C)=O	–	–	–	–	–	–	–	solubility thermodynamic at 24 h [20]: 38.3 µg/mL (≈ 91.3 µM)
COc1nc(OCc2cccc(-c3ccccc3)c2C)ccc1CNCCCCCCC(=O)NO	0.0592 µM	> 10 µM	> 10 µM	> 100 µM	> 10 µM	> 10 µM	> 10 µM	–
O=C(CCCCCCC(=O)Nc1ccccc1)NO	–	–	–	–	–	–	–	Activity [21]: Active; Activity [22]: Active
COc1nc(-c2cccc(-c3ccccc3)c2C)ccc1CNCC(=O)NO	0.0163 µM	> 10 µM	9 µM	10 µM	8.5 µM	> 10 µM	> 10 µM	–
Cc1c(COc2cc(OCc3cccc(C#N)c3)c(CNC(C)(C)C(=O)O)cc2Cl)cccc1-c1ccccc1	–	–	–	–	–	–	–	inhibition [10]: inactive; inhibition in vivo at 20 mg/kg/day [12]: ~50%; inhibition in vivo at 20 mg/kg/day [14]: 43.2%; Activity [15]: 4.99%; Activity [19]: 3.41%
